Source: US9290511B2, “Thieno-pyrimidines, useful as potassium channel inhibitors” (XENTION LIMITED, priority 2011, dated 2016)
pIC50: −log10 of the molar value.

Molecular target: T1, Kir3.1/3.4 (Rattus norvegicus, UniProt P48548+P63251)
T1 construct: expressed in transfected cells
T1 sequence (P63251 1-501): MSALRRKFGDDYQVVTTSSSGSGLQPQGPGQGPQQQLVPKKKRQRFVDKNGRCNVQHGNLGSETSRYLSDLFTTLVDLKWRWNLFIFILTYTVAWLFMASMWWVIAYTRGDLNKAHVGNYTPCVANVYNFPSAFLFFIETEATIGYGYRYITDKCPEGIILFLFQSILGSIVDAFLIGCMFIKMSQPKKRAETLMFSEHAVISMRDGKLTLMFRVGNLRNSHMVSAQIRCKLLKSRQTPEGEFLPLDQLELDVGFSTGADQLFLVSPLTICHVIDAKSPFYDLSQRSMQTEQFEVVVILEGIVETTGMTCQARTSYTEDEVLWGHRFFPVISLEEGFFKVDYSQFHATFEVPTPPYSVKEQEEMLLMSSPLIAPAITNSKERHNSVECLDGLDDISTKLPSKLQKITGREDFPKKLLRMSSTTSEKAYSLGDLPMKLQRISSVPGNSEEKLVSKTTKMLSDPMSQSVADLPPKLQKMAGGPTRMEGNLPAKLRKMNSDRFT
T1 sequence (P48548 1-419): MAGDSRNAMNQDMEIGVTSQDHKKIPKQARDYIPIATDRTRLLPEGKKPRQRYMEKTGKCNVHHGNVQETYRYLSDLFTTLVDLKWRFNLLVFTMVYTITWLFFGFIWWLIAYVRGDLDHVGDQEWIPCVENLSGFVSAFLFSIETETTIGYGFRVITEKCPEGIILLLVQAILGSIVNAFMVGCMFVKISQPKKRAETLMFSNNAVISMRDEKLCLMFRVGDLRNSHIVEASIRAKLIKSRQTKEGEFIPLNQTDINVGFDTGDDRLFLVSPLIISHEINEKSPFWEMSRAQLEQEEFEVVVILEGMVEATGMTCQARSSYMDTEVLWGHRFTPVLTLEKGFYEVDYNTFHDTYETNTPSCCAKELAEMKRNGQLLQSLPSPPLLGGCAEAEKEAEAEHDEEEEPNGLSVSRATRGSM
Assay: Kir3.1/3.4 Electrophysiology Method (manual whole-cell patch clamp)
Assay type: cell-based
Details: Electrophysiology Method (TABLE 1)
Method: Compound activity against the recombinant G-protein activated inward rectifier current encoded by the heterotetramer Kir3.1/3.4 was assessed using manual whole-cell patch technique. The heterotetramer forms the pore-forming channel that conducts the acetylcholine/adenosine-activated potassium current in the heart.
For whole-cell patch-clamp studies, cells (Human Embryonic Kidney 293 stably transfected with rat Kir3.1/3.4) were seeded onto glass coverslips before recordings were made. Cells were seeded in sterile 30 mm Petri dishes at a density to enable isolated cells to be selected for patch clamp experiments. The dishes were stored in a humidified, gassed (5% CO2) incubator at 37° C. until use.
Whole-cell patch-clamp recordings of membrane currents were made following gigaohm seal formation between the patch electrode and the cell using HEKA EPC-9/10 amplifiers controlled by Pulse Software (Ver8.5x/8.6×/8.7×, HEKA, Germany). Coverslips seeded with cells were placed in a recording chamber mounted on the stage of an inverted microscope. During the experiment, the cell of interest was continuously superfused with bather solution delivered via a cannula placed in close proximity to the cell to enable control of the extracellular solution environment. Only those cells with a current <−500 pA (current at −140 mV) were used for experiments. During experiments, series resistance was compensated by a minimum of 70%.
Electrophysiology voltage-step protocols and analysis of data were performed as follows. Data was sampled at 5 kHz, and filtered with a −3 dB bandwidth of 2.5 kHz. Cells were held at a voltage of −60 mV. Currents were evoked by a depolarising voltage step to +60 mV (100 ms) before a ramp-repolarisation (0.4 V·s^−1) to −140 mV (100 ms) before returning to −60 mV. The command waveform was repeatedly applied every 10 s throughout the experiment. Mean currents during 1-99% of the time at −140 mV were analysed using Pulsefit software (v8.x, HEKA, Germany). The voltage protocol was repeatedly applied to achieve a stable current baseline in bather before the test substance was superfused via the cannula in close proximity to the cell under investigation. The test substance was allowed to equilibrate during which time voltage protocol was repeatedly applied and recorded. On reaching steady-state inhibition, the cell was superfused with an identical bather solution containing zero external potassium chloride (replaced by equimolar NaCl). The identical current measurement was made in the absence of potassium to assess the passive leak at −140 mV. The leak current was subtracted from the control and steady-state drug current values. The percentage inhibition of the leak-subtracted current in the presence of test substance was calculated relative to the control leak-subtracted pre-drug value. Internal patch-pipette solution contained in mM: 110 KCl, 20 NaCl, 0.9 GTPγS, 5 Mg-ATP, 5 EGTA, 10 HEPES, pH7.2 corrected with KOH. The external superfusate composition in mM was: 150 (or 160) NaCl, 10 (or 0) KCl, 3 CaCl2, 1 MgCl, 10 HEPES, pH 7.4 corrected with NaOH.

| Compound | pIC50 |
| --- | --- |
| CN1CC(NCC2CCN(c3ncnc4scc(-c5ccccc5)c34)CC2)CC1=O (stereo not shown) [Example 91, 1-methyl-4-[[1-(5-phenylthieno[2,3-d]pyrimidin-4-yl)-4-piperidyl]methylamino]pyrrolidin-2-one] | 5.52 to 6.30 |
| CC(C)CC(=O)Nc1sc2nc(N3CCC(COCCN4CCCC4)CC3)ncc2c1-c1ccccc1 [Example 303] | > 6.30 |
| COCC1C[C@H]2CC[C@@H](C1)N2c1nc(OC2CC3CC2CN3)nc2sc(C(=O)N(C)C)c(-c3ccccc3)c12 (stereo partly drawn) [Example 366, 2-(2-azabicyclo[2.2.1]heptan-5-yloxy)-4-[(1S,5R)-3-(methoxymethyl)-8-azabicyclo[3.2.1]octan-8-yl]-N,N-dimethyl-5-phenyl-thieno[2,3-d]pyrimidine-6-carboxamide] | 5.52 to 6.30 |
| NC(=O)C1CCN(c2nc(N3C4CCC3CC(CO)C4)c3c(-c4ccccc4)csc3n2)C1 (stereo not shown) [Example 310] | 5.52 to 6.30 |
| CN(C)C(=O)c1ccccc1-c1csc2ncnc(N3CCC(COCCN4CCCC4)CC3)c12 [Example 330] | 5.00 to 5.52 |
| c1ccc(-c2csc3ncnc(N4CCC(CN5CCC(N6CCCCC6)C5)CC4)c23)cc1 (stereo not shown) [Example 218] | > 6.30 |
| CN1CCN(CC2CCN(c3ncnc4scc(-c5ccccc5)c34)CC2)CC1 [Example 214] | > 6.30 |
| OCC1CC2CCC(C1)N2c1nc(N2CCOCC2)c2c(-c3ccccc3)csc2n1 (stereo not shown) [Example 165, [8-(4-morpholino-5-phenyl-thieno[2,3-d]pyrimidin-2-yl)-8-azabicyclo[3.2.1]octan-3-yl]methanol] | 5.52 to 6.30 |
| O=C(NCCN1CCOCC1)C1CCCN(c2ncnc3scc(-c4ccccc4)c23)C1 (stereo not shown) [Example 285] | 5.52 to 6.30 |
| CN1CCC(N(C)CC2CCN(c3nc(N4CCCCC4C(N)=O)nc4scc(-c5ccccc5)c34)CC2)C1 (stereo not shown) [Example 129] | 5.52 to 6.30 |
| c1ccc(-c2csc3nc(N4CCC(COCCN5CCCC5)C4)ncc23)cc1 (stereo not shown) [Example 149] | > 6.30 |
| N,N-dimethyl-5-phenyl-thieno[2,3-d]pyrimidine-6-carboxamide [Example 339] | > 6.30 |
| c1ccc(-c2csc3nc(N4CCN(CCN5CCCC5)CC4)ncc23)cc1 [Example 145] | > 6.30 |
| COCC1CCN(c2nc(N(CCO)CCN3CCCC3)nc3scc(-c4ccccc4)c23)CC1 [Example 185] | > 6.30 |
| c1nc(N2CCC(COCCN3CCCC3)CC2)c2c(-c3ccsc3)csc2n1 [Example 317] | > 6.30 |
| COc1ccccc1-c1csc2nc(C3CC3)nc(N3CCC(COCCN4CCCC4)CC3)c12 [Example 358, 2-cyclopropyl-5-(2-methoxyphenyl)-4-[4-(2-pyrrolidin-1-ylethoxymethyl)-1-piperidyl]thieno[2,3-d]pyrimidine] | > 6.30 |
| F[C@@H]1CCN(CCOCC2CCN(c3ncnc4scc(-c5ccccc5)c34)CC2)C1 [Example 32, 4-[4-[2-[(3R)-3-fluoropyrrolidin-1-yl]ethoxymethyl]-1-piperidyl]-5-phenyl-thieno[2,3-d]pyrimidine] | > 6.30 |
| CC(C)NC(=O)c1sc2ncnc(N3CCC(COCCN4CCCC4)CC3)c2c1-c1cccc(F)c1 [Example 137] | > 6.30 |
| c1ccc(-c2csc3ncnc(N4CCC(COC5CCOC5)CC4)c23)cc1 (stereo not shown) [Example 16, 5-phenyl-4-[4-(tetrahydrofuran-3-yloxymethyl)-1-piperidyl]thieno[2,3-d]pyrimidine] | 5.52 to 6.30 |
| CN1CCC(N(C)C(=O)C2CCN(c3ncnc4scc(-c5ccccc5)c34)CC2)C1 (stereo not shown) [Example 249] | > 6.30 |
| COCC1CCN(c2nc(NCCN(C)C)nc3scc(-c4ccccc4)c23)CC1 [Example 173] | > 6.30 |
| CCc1nc(N2CCC(N(C)C)CC2)c2c(-c3ccccc3)csc2n1 [Example 370] | > 6.30 |

| Compound | pIC50 |
| --- | --- |
| CN1CCC(N(C)CC2CCN(c3nc(NCCN4CCCC4)nc4scc(-c5ccccc5)c34)CC2)C1 (stereo not shown) [Example 110] | > 6.30 |
| O=C(NCCN1CCCC1)C1CCCN(c2ncnc3scc(-c4ccccc4)c23)C1 (stereo not shown) [Example 268] | > 6.30 |
| CN1CCCC1CCNCC1CN(c2ncnc3scc(-c4ccccc4)c23)C1 (stereo not shown) [Example 219] | > 6.30 |
| FC(F)(F)c1nc(N2CCOCC2)c2c(-c3ccccc3)csc2n1 [Example 336] | 5.52 to 6.30 |
| CN(C)CCN(C)CC1CCN(c2ncnc3scc(-c4ccccc4)c23)CC1 [Example 71, N,N,N′-trimethyl-N′-[[1-(5-phenylthieno[2,3-d]pyrimidin-4-yl)-4-piperidyl]methyl]ethane-1,2-diamine] | > 6.30 |
| CN(C)C1CCN(c2ncnc3scc(-c4ccccc4)c23)CC1 [Example 169] | 5.52 to 6.30 |
| CC(C)NCC1CCN(c2ncnc3scc(C4CCCCC4)c23)CC1 [Example 196] | > 6.30 |
| C=CCNCC1CCN(c2ncnc3scc(-c4ccccc4)c23)CC1 [Example 94, N-[[1-(5-phenylthieno[2,3-d]pyrimidin-4-yl)-4-piperidyl]methyl]prop-2-en-1-amine] | > 6.30 |
| c1ccc(-c2csc3ncnc(N4CCC(OCCN5CCCC5)CC4)c23)cc1 [Example 271] | > 6.30 |
| c1ccc(-c2csc3ncnc(N4CCC(CNC5CCC5)CC4)c23)cc1 [Example 64, N-[[1-(5-phenylthieno[2,3-d]pyrimidin-4-yl)-4-piperidyl]methyl]cyclobutanamine] | > 6.30 |
| COCC1CC2CCC(C1)N2c1nc(OC2CC3CC2CN3)nc2scc(-c3ccccc3)c12 (stereo not shown) [Example 352] | > 6.30 |
| CCCNCC1CCN(c2ncnc3scc(-c4ccccc4)c23)CC1 [Example 51, N-[[1-(5-phenylthieno[2,3-d]pyrimidin-4-yl)-4-piperidyl]methyl]propan-1-amine] | 5.52 to 6.30 |
| CN(C)C1CCCN(CC2CCN(c3ncnc4scc(-c5ccccc5)c34)CC2)C1 (stereo not shown) [Example 60, N,N-dimethyl-1-[[1-(5-phenylthieno[2,3-d]pyrimidin-4-yl)-4-piperidyl]methyl]piperidin-3-amine] | > 6.30 |
| CN1CCC(N(C)CC2CCN(c3ncnc4scc(-c5ccccc5)c34)CC2)C1 (stereo not shown) [Example 202] | > 6.30 |
| CN(CC1CCN(c2ncnc3scc(-c4ccccc4)c23)CC1)C1CCOC1 (stereo not shown) [Example 203] | 5.52 to 6.30 |
| c1ccc(-c2csc3ncnc(N4CC[C@H](COCCN5CCCC5)C4)c23)cc1 [Example 263] | > 6.30 |
| CN(C)C(=O)c1cccc(-c2csc3ncnc(N4CCC(COCCN5CCCC5)CC4)c23)c1 [Example 332] | 5.52 to 6.30 |
| CC(C)OCC1CCN(c2ncnc3scc(-c4ccccc4)c23)CC1 [Example 15, 4-[4-(isopropoxymethyl)-1-piperidyl]-5-phenyl-thieno[2,3-d]pyrimidine] | 5.52 to 6.30 |
| CN(C)CCCNCC1CCN(c2ncnc3scc(-c4ccccc4)c23)CC1 [Example 217] | > 6.30 |
| c1ccc(-c2csc3ncnc(N4CCC(COc5cccnc5)CC4)c23)cc1 [Example 180] | > 6.30 |
| O=C(Cc1nc(N2CCCC2c2ccccc2)c2c(-c3ccc(F)cc3)csc2n1)NCCN1CCCC1 (stereo not shown) [Example 199] | > 6.30 |
